This is an account of results in patent US10577368B2 (The United States of America, as represented by the …, priority 2013, dated 2020).

Molecules are shown by their SMILES. “And” between values parts separate entries of the source, which are not always exact repeats. Identical values can stand only once. Like-named read-outs stand apart in the source and are kept apart here.

Series [1] concerns the target Alpha 2B adrenergic receptor (Homo sapiens (Human), UniProt P18089). Briefly: Off-target binding, α2B. An excerpt: (§1) The results are set forth below.
The target of series [2] is Alpha 2C adrenergic receptor (Homo sapiens (Human), UniProt P18825). The series can be described thus: Off-target binding, α2C.
Excerpt: as §1

The target in series [3] is h Beta 3 adrenergic receptor (Homo sapiens (Human), UniProt P13945). Briefly: Off-target binding, β3.
The next series deals with h5HT1A (Homo sapiens (Human), UniProt P08908). The series can be described thus: Off-target binding, 5HT1A.
Another series has as its target h5HT2B (Homo sapiens (Human), UniProt P41595). The series can be described thus: Off-target binding, 5HT2B.
The next series has as its target h5HT2C (Homo sapiens, UniProt P28335). Briefly: Off-target binding, 5HT2C.
The target of another series is hH4 histamine receptor (Homo sapiens (Human), UniProt Q9H3N8). The series can be described thus: Off-target binding, H4.
Excerpt: as §1

The next series has as its target hM2 muscarinic receptor (Homo sapiens (Human), UniProt P08172). Briefly: Off-target binding, M2.
A further series deals with DOR opiate receptor (Homo sapiens (Human), UniProt P41143). Briefly: Off-target binding, DOR.
For the next series, the target named is r Sigma 2 (Rattus norvegicus (Rat), UniProt Q5U3Y7). Briefly: Off-target binding, Sigma-2. As to conditions: for Ki: off-target binding; for Interaction at Sigma-2: 10 μM.
Excerpt: as §1

Another series deals with PBR (Homo sapiens (Human), UniProt P30536). Briefly: Off-target binding, PBR. The note with it: for Ki: off-target binding; for Interaction at PBR: 10 μM.
Excerpt: as §1

In a further series the target is hA1AR (Homo sapiens (Human), UniProt P30542). Briefly: Radioligand binding at hA1AR, CHO cell membranes, [3H]R-PIA. As to conditions: read-out: hA1AR % inhibition.
In the next series the target is hA2AAR (Homo sapiens (Human), UniProt P29274). Briefly: Radioligand binding at hA2AAR, HEK293 cell membranes, [3H]CGS21680. As to conditions: read-out: hA2AAR % inhibition.
In the next series the target is hA3AR (Homo sapiens (Human), UniProt P0DMS8). The series can be described thus: Radioligand binding at hA3AR, CHO cell membranes, [125I]I-AB-MECA.
For another series, the target named is mA3AR (Mus musculus (Mouse), UniProt Q61618). Briefly: Competition binding at mA3AR, HEK293 cell membranes.
A further series has as its target mA1AR (Mus musculus (Mouse), UniProt Q60612). Briefly: Competition binding at mA1AR, HEK293 cell membranes. As to conditions: read-out: A1AR % inhibition, mouse data (m).
The target of the next series is mA2AAR (Mus musculus (Mouse), UniProt Q60613). Briefly: Competition binding at mA2AAR, HEK293 cell membranes. The note with it: read-out: A2AAR % inhibition, mouse data (m) (converted).
Series [4] relates to chronic constriction injury model of neuropathic pain. Briefly: CCI model of neuropathic pain, reversal of mechano-allodynia. The format is in vivo, mice. The note with it: for Max. effect Emax (% ± SEM) / Time of peak protection: ipsilateral hind paw; for Duration of action / Efficacy in reversing NP in vivo (of full reversal at peak effect): CCI model.
The target of the next series is human DAT (Homo sapiens (Human), UniProt Q01959). Briefly: Radioligand ([3H]WIN35428) binding at the dopamine transporter. The note with it: for Ki: off-target binding.
The test system of series [5] is muscarinic, adrenergic, dopamine, GABA, histamine, opiate, serotonin receptors and transporters. Briefly: Off-target binding panel (receptors and transporters of Table 5). As to conditions: for Interactions at other receptors of the off-target panel: 10 μM.
Excerpt: as §1

In a further series the target is r Sigma 1 (Rattus norvegicus (Rat), UniProt Q9R0C9). The series can be described thus: Off-target binding, Sigma-1. As to conditions: 10 μM.
Excerpt: as §1

A short description of series [6]: Stability in simulated fluids (gastric, intestinal). The format is in vitro ADME. From the text:
In vitro stability parameters for selected compounds are set forth in Table 6, in accordance with an embodiment of the invention.

The subject of the next series is morphine-dependent rats. The note with it: naloxone-precipitated withdrawal in morphine-dependent rats; cited from earlier work.
Another series deals with Sprague Dawley rats. Briefly: Toxicity of MRS5698 dosed by gavage. The format is in vivo, rat. As to conditions: up to 150 mg/kg by gavage. How it is done:
The formulation was dosed at up to 150 mg/kg by gavage to Sprague Dawley rats.

In series [7] the test system is chronic constriction injury (CCI) model, mechano-allodynia. The series can be described thus: Morphine analgesic tolerance in CCI model, co-administration with A3AR agonist. The format is in vivo, mice.
In series [8] the test system is 5 CYP isozymes (1A2, 2C9, 2C19, 2D6, 3A4). The series can be described thus: Inhibition of 5 CYP isozymes. The format is in vitro ADME.

mA2AAR, sequence (Q60613 whole entry): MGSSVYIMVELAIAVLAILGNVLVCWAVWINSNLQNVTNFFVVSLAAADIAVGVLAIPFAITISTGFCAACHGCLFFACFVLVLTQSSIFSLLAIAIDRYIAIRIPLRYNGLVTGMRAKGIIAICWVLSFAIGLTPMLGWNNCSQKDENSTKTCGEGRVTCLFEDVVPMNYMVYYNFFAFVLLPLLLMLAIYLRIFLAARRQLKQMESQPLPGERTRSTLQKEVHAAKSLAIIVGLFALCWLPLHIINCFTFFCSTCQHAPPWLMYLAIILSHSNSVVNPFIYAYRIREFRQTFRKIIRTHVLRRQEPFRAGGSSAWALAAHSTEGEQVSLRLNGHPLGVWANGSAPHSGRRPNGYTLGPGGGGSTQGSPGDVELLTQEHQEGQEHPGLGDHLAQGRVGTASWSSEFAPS
mA1AR, sequence (Q60612 whole entry): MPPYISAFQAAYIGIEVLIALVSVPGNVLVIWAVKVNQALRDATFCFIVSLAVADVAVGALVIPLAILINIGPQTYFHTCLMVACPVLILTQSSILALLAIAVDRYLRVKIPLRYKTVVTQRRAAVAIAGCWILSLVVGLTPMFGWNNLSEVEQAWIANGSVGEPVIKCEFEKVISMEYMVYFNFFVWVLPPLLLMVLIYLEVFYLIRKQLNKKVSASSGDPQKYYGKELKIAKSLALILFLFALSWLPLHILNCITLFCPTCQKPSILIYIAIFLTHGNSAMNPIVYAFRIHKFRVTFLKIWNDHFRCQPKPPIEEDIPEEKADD
r Sigma 2, sequence (Q5U3Y7 whole entry): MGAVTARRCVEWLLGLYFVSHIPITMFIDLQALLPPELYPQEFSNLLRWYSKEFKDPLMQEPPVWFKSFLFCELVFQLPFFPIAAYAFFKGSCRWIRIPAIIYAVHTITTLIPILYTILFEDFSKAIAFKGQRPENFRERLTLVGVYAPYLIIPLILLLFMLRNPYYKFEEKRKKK
human DAT, sequence (Q01959 whole entry): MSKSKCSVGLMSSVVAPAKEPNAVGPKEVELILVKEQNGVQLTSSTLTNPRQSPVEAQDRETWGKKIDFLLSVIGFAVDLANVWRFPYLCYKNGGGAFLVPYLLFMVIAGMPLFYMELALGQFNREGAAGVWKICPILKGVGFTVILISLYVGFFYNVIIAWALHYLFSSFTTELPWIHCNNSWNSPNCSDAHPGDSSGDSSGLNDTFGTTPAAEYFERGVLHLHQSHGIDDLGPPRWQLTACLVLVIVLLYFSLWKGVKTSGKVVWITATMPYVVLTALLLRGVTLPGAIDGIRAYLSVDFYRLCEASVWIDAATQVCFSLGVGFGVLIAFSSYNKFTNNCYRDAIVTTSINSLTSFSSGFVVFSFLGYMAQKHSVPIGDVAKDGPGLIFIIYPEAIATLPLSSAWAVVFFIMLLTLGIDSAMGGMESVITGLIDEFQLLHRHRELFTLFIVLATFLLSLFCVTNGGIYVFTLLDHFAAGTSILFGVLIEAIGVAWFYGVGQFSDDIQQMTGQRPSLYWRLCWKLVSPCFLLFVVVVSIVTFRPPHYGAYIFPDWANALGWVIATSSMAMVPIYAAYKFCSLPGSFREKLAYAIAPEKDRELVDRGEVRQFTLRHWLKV
Alpha 2B adrenergic receptor, sequence (P18089 whole entry): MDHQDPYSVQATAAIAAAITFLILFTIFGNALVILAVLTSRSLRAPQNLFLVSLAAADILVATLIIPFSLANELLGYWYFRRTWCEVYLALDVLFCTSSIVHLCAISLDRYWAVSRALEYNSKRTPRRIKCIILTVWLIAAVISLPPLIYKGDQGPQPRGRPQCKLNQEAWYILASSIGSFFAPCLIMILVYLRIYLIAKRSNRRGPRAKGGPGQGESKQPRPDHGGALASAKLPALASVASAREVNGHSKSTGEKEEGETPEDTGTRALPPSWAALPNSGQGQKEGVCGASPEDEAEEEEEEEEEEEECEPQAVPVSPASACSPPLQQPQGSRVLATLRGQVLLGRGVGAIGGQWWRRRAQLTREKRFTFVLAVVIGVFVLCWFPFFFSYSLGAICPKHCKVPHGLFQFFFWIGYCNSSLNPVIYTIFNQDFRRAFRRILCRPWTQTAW
hA2AAR, sequence (P29274 whole entry): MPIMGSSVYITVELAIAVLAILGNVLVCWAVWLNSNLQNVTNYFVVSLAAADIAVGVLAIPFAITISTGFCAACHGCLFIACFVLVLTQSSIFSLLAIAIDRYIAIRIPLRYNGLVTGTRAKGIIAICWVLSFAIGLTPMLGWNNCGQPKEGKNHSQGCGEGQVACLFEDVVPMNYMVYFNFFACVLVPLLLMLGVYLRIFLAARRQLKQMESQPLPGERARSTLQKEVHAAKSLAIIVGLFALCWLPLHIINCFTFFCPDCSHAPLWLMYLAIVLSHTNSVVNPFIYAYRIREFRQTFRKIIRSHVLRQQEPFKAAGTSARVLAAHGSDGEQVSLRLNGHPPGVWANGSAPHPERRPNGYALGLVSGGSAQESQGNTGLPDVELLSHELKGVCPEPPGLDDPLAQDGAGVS
hA1AR, sequence (P30542 whole entry): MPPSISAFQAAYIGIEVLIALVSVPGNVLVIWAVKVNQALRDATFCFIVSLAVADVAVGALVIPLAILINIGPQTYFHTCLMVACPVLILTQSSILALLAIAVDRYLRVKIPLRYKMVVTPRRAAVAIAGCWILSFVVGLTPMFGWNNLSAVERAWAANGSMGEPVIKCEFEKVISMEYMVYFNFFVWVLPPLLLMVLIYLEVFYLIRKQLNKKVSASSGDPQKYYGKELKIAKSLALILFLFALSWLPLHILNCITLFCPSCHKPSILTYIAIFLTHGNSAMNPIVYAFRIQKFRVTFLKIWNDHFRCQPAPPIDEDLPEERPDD
PBR, sequence (P30536 whole entry, species assumed): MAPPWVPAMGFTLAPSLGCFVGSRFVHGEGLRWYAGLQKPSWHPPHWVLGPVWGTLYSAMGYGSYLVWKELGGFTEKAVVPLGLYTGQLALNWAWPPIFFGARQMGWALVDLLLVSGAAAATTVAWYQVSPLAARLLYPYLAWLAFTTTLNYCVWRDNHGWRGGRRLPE
mA3AR, sequence (Q61618 whole entry): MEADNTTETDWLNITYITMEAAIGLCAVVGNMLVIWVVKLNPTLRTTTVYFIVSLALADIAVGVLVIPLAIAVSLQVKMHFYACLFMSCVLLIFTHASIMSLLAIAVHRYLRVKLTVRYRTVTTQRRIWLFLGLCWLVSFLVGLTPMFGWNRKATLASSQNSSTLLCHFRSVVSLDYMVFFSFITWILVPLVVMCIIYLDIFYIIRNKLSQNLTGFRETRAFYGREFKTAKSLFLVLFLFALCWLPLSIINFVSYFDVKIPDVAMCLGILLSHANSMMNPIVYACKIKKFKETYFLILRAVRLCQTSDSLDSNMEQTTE
h Beta 3 adrenergic receptor, sequence (P13945 whole entry): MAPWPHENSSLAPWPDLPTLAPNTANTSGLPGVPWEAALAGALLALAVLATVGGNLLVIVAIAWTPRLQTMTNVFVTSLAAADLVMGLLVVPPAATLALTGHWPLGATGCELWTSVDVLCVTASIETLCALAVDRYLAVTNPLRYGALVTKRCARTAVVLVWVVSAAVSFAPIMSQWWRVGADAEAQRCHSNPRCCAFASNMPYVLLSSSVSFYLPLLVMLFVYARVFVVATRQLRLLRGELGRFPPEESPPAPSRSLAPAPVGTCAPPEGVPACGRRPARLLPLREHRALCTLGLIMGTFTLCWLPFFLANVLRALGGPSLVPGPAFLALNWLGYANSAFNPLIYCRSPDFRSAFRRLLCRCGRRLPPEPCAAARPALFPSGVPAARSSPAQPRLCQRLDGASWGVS
h5HT2C, sequence (P28335 33-458 limits assumed): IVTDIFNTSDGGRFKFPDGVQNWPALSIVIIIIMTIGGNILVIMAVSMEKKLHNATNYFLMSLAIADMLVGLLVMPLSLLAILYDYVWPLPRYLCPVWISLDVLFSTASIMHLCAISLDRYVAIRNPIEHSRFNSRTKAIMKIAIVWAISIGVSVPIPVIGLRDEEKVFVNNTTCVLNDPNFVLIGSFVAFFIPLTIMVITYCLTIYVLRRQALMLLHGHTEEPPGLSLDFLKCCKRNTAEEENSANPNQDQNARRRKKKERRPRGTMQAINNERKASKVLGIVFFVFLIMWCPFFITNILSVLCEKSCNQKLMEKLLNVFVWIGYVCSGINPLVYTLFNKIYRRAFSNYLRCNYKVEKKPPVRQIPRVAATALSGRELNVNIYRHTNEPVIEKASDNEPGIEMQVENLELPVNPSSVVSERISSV
h5HT1A, sequence (P08908 whole entry): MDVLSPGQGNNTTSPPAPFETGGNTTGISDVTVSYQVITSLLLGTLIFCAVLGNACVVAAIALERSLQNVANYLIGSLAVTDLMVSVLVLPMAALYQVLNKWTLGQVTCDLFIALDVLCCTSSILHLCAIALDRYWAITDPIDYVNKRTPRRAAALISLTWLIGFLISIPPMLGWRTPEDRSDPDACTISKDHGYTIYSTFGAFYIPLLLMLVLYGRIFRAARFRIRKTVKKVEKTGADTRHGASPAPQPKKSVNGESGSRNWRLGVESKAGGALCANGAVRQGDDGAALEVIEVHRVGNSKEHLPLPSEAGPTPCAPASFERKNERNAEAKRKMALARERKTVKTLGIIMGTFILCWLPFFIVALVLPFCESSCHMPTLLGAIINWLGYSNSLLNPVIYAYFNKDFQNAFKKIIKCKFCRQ
hH4 histamine receptor, sequence (Q9H3N8 whole entry): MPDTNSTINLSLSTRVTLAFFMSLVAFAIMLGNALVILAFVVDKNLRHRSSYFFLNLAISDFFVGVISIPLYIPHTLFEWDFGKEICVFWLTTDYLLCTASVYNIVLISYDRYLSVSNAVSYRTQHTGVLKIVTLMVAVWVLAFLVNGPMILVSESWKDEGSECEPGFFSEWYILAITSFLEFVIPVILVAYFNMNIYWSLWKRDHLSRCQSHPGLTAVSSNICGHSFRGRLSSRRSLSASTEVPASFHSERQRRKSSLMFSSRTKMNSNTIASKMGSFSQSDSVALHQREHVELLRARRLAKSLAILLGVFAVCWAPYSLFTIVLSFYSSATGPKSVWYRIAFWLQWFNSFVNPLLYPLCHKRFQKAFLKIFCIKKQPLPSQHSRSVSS

In the case of `CNC(=O)C12CC1C(n1cnc3c(NCc4cccc(Cl)c4)nc(C#Cc4ccc(F)c(F)c4)nc31)C(O)C2O` (single isomer, unassigned) [MRS5698], the Ki (in general, the equilibrium dissociation constant of an inhibitor or competing ligand from its target) was 2.9 µM and 4.8 µM in series [1] (read-out: Ki at α2B); 1 to 10 µM in [1] (read-out: Ki class at α2B); 2 µM in [2] (read-out: Ki at α2C); 1 to 10 µM in [2] (read-out: Ki class at α2C); 5.8 µM in series [3] (read-out: Ki at β3); 1 to 10 µM in series [3] (read-out: Ki class at β3). The inhibitory constant (Ki) at h5HT1A (read-out: Ki at 5HT1A) was 7.6 µM; at h5HT1A (read-out: Ki class at 5HT1A) it was 1 to 10 µM; at h5HT2B (read-out: Ki at 5HT2B), 2.6 µM; on h5HT2B (read-out: Ki class at 5HT2B), 1 to 10 µM; on h5HT2C (Ki at 5HT2C) it was 5.8 µM; on h5HT2C (Ki class at 5HT2C), 1 to 10 µM. The Ki at hH4 histamine receptor (read-out: Ki at H4) is 9.4 µM; on hH4 histamine receptor (read-out: Ki class at H4), 1 to 10 µM; at hM2 muscarinic receptor (read-out: Ki at M2), 5.4 µM; at hM2 muscarinic receptor (read-out: Ki class at M2), 1 to 10 µM; on DOR opiate receptor (read-out: Ki at DOR), 2.5 µM; on DOR opiate receptor (read-out: Ki class at DOR) it was 1 to 10 µM. Further, the Ki is 0.91 µM on r Sigma 2 (read-out: Ki at Sigma-2 (σ2)), under 1 µM at r Sigma 2 (read-out: Ki class at σ2), 0.34 µM on PBR (read-out: Ki at PBR) and under 1 µM at PBR (read-out: Ki class at PBR).

In the case of `CNC(=O)[C@@]12C[C@@H]1[C@@H](n1cnc3c(/C=C(\O)c4ccc(C(C)(C)C)cc4)nc(C#Cc4ccc(C(C)(C)C)cc4)nc31)C(O)C2O` (stereo in doubt) [Compound 40, (1S,2S,3R,4R,5S)-4-(6-((Z)-2-(4-(tert-Butyl)phenyl)-2-hydroxyvinyl)-2-((4-(tert-butyl)phenyl)ethynyl)-9H-purin-9-yl)-2,3-dihydroxy-N-methylbicyclo[3.1.0]hexane-1-carboxamide], the inhibition – broadly, the relative decrease from the control value, in per cent – at 10 µM at hA1AR amounted to 16 ± 5%; at hA2AAR, 16 ± 7%. In addition, the Ki on hA3AR is 0.0785 ± 0.0198 µM; on mA3AR it was 0.136 ± 0.009 µM.

In the case of `CNC(=O)[C@@]12C[C@@H]1[C@@H](n1cnc3c(NC)nc(C#Cc4cccs4)nc31)[C@H](O)[C@@H]2O` [Compound 8, (1S,2R,3S,4R,5S)-2,3-Dihydroxy-N-methyl-4-(6-(methylamino)-2-(thiophen-2-ylethynyl)-9H-purin-9-yl)bicyclo[3.1.0]hexane-1-carboxamide], the inhibition at 10 µM on hA1AR was 25%; on hA2AAR, 20 ± 6%; on mA1AR, 47%; at mA2AAR, 3%. Further, the inhibitory constant (Ki) is 0.043 ± 0.002 µM at mA3AR, 5.5 µM in series [1] (read-out: Ki at α2B), 0.76 µM at human DAT (read-out: Ki at DAT) and under 1 µM on human DAT (read-out: Ki class at DAT). For the same compound, the “Max. effect Emax (% ± SEM)” value in series [4] (3 μmol/kg p.o., mice) was found to be 100 ± 0.0%. Also, in [4] (3 μmol/kg p.o., mice), the “Time of peak protection” value was found to be 1 h. For the same compound, the Duration of action in [4] was about 3 h. In addition, the “Efficacy in reversing NP in vivo (of full reversal at peak effect)” value (“Efficacy in reversing NP in vivo” for short) in series [4] is about 100%. For the same compound, in series [5], the “Off-target effects compared with MRS5698 and MRS5676” value is “significantly fewer off-target effects”. Moreover, the “Interactions at other receptors of the off-target panel” value (“Interactions at other receptors” for short) in series [5] is “No interactions at other receptors”.

On to `CNC(=O)[C@@]12C[C@@H]1[C@@H](n1cnc3c(NC)nc(C#Cc4ccco4)nc31)[C@H](O)[C@@H]2O` [Compound 17, (1S,2R,3S,4R,5S)-4-(2-(Furan-2-ylethynyl)-6-(methylamino)-9H-purin-9-yl)-2,3-dihydroxy-N-methylbicyclo[3.1.0]hexane-1-carboxamide], for which the inhibition at 10 µM was 30% on hA1AR, 18 ± 9% on hA2AAR, 59% on mA1AR and 17% at mA2AAR. In addition, the results for the Ki at hA3AR and on mA3AR were 0.00062 ± 6e-05 µM and 0.054 ± 0.011 µM, respectively. The “Effect at 3 h (% ± SEM)” value in series [4] (3 μmol/kg p.o., mice, 3 h) is on record as 27.6 ± 1.3%. Also, the “Max. effect Emax (% ± SEM)” value in series [4] (3 μmol/kg p.o., mice) was found to be 100 ± 0.0%. In addition, the “Time of peak protection” value in [4] (3 μmol/kg p.o., mice) is listed as 1 h. The Duration of action in [4] is on record as about 3 h. The “Efficacy in reversing NP in vivo” value in [4] is about 100%. Also, the “Interaction at Sigma-1” value on r Sigma 1 is “weak interactions”. The “Interaction at Sigma-2” value on r Sigma 2 is reported as “weak interactions”. The “Interaction at PBR” value on PBR was “weak interactions”. For the same compound, the “Off-target effects compared with MRS5698 and MRS5676” value in series [5] is on record as “significantly fewer off-target effects”. Also, the “Interactions at other receptors” value in [5] is given as “No interactions”. Besides, the half-life in series [6] (simulated gastric fluid, read-out: Stability in simulated fluids (t1/2, min): Gastric) is over 480 min; in series [6] (simulated intestinal fluid, read-out: Stability in simulated fluids (t1/2, min): Intestinal), over 480 min.

Turning to `CNC(=O)[C@@]12C[C@@H]1[C@@H](n1cnc3c(NC)nc(C#Cc4cnn(C)c4)nc31)[C@H](O)[C@@H]2O` [Compound 18, (1S,2R,3S,4R,5S)-2,3-Dihydroxy-N-methyl-4-(2-((1-methyl-1H-pyrazol-4-yl)ethynyl)-6-(methylamino)-9H-purin-9-yl)bicyclo[3.1.0]hexane-1-carboxamide], the inhibition at 10 µM at hA1AR was 35%; on hA2AAR, 12 ± 6%; on mA1AR, 72%; on mA2AAR, 16%. In [4] (3 μmol/kg p.o., mice), the “Max. effect Emax (% ± SEM)” value is 87.3 ± 12.7%. Also, the “Time of peak protection” value in series [4] (3 μmol/kg p.o., mice) was found to be 1 h. Moreover, the “Efficacy in reversing NP in vivo” value in series [4] is given as about 100%. In addition, the “Interaction at Sigma-1” value on r Sigma 1 is recorded as “weak interactions”. Also, the “Interaction at Sigma-2” value on r Sigma 2 is “weak interactions”. For the same compound, the “Interaction at PBR” value on PBR is “weak interactions”. The “Off-target effects compared with MRS5698 and MRS5676” value in [5] is “significantly fewer off-target effects”. For the same compound, the “Interactions at other receptors” value in [5] is “No interactions”.

As to `CNC(=O)[C@H]1O[C@@H](n2cnc3c(NCc4cccc(I)c4)ncnc32)[C@H](O)[C@@H]1O` [IB-MECA], the “Effect on opioid dependence” value with morphine-dependent rats was “block opioid dependence”.

On to `CNC(=O)[C@@]12C[C@@H]1[C@@H](n1cnc3c(NCc4cccc(Cl)c4)nc(C#Cc4ccc(F)c(F)c4)nc31)C(O)[C@H]2O` (stereo partly drawn) [MRS5698, reference compound], for which the “Findings after oral dosing” value in the series on Sprague Dawley rats is “No abnormal findings”. Also, at human DAT, the “Interaction with DAT” value is “does not interact with DAT”. Further, the “Interactions at other receptors” value in [5] was “No interactions at other receptors”. The “Analgesic effect of the A3AR agonist dose per se” value in series [7] ([…]) is on record as “no analgesic effects per se”.

With `CNC(=O)[C@]12CC1[C@@H](n1cnc3c(NC)nc(C#Cc4ccc(Br)s4)nc31)[C@H](O)C2O` (stereo partly drawn) [compound 100], the IC50 (commonly the concentration needed to halve the response being measured) in series [8] is over 7 µM.

Turning to `CN1CC[C@]23c4c5ccc(O)c4O[C@H]2[C@@H](O)C=C[C@H]3[C@H]1C5` [morphine], the “Reversal of mechano-allodynia by morphine alone on daily dosing” value in series [7] (given daily over 25 days) is “loses its ability to reverse mechano-allodynia”. The “Reversal of mechano-allodynia by morphine alone” value in series [7] (s.c. injection at day 7) was “near-to-maximal reversal of mechano-allodynia”.
